Experiments:
Test in all cases: relative viability (nuclei count vs DMSO), 5 days (fraction); higher = more cells survive
LCLC-97TM1 = tested on: LCLC-97TM1
Procedure, shortened: (§1)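 Relative viability equals treated-well nuclei counts divided by vehicle-well nuclei counts. Counts came from 4× images of lung cancer cell lines grown in 1536-well plates for 5 days after pin-tool dosing on the day after seeding. Dosing used one drug alone or a fixed anchor-drug dose plus five library-drug doses (not always all listed) in √10 steps, and values are medians of duplicate plates.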

NCI-H1355 = tested on: NCI-H1355
Procedure, shortened: as §1

HCC-44 = tested on: HCC-44
Procedure, shortened: as §1

NCI-H2405 = tested on: NCI-H2405
Procedure, shortened: as §1

NCI-H23 = tested on: NCI-H23
Procedure, shortened: as §1

UMC-11 = tested on: UMC-11
Procedure, shortened: as §1

NCI-H322M = tested on: NCI-H322M
Procedure, shortened: as §1

NCI-H1944 = tested on: NCI-H1944
Procedure, shortened: as §1

NCI-H1395 = tested on: NCI-H1395
Procedure, shortened: as §1

NCI-H1651 = tested on: NCI-H1651
Procedure, shortened: as §1

EMC-BAC-2 = tested on: EMC-BAC-2
Procedure, shortened: as §1

NCI-H650 = tested on: NCI-H650
Procedure, shortened: as §1

SK-MES-1 = tested on: SK-MES-1
Procedure, shortened: as §1

NCI-H2085 = tested on: NCI-H2085
Procedure, shortened: as §1

H3255 = tested on: H3255
Procedure, shortened: as §1

NCI-H2087 = tested on: NCI-H2087
Procedure, shortened: as §1

NCI-H1793 = tested on: NCI-H1793
Procedure, shortened: as §1

HCC-827 = tested on: HCC-827
Procedure, shortened: as §1

NCI-H1563 = tested on: NCI-H1563
Procedure, shortened: as §1

NCI-H520 = tested on: NCI-H520
Procedure, shortened: as §1

EPLC-272H = tested on: EPLC-272H
Procedure, shortened: as §1

NCI-H1993 = tested on: NCI-H1993
Procedure, shortened: as §1

**Q.** What does the source list for `COc1cc(N2CCC(C(N)=O)CC2)ccc1Nc1nc(N)c(Cl)c(Nc2ccccc2S(=O)(=O)C(C)C)n1` [HG-5-88-01] + CS(=O)(=O)CCNCc1ccc(-c2ccc3ncnc(Nc4ccc(OCc5cccc(F)c5)c(Cl)c4)c3c2)o1 [Lapatinib] (partner 2 µM)?
**A.** relative viability (LCLC-97TM1; first compound 0.04 µM): 0.999; relative viability (LCLC-97TM1; first compound 0.1265 µM): 0.95; relative viability (LCLC-97TM1; first compound 0.4 µM): 0.471; relative viability (LCLC-97TM1; first compound 1.265 µM): 0.683; relative viability (LCLC-97TM1; first compound 4 µM): 0.301; relative viability (NCI-H1355; first compound 0.04 µM): 1.08; relative viability (NCI-H1355; first compound 0.1265 µM): 1.04; relative viability (NCI-H1355; first compound 0.4 µM): 0.832; relative viability (NCI-H1355; first compound 1.265 µM): 0.917; relative viability (NCI-H1355; first compound 4 µM): 0.623; relative viability (HCC-44; first compound 0.04 µM): 0.978; relative viability (HCC-44; first compound 0.1265 µM): 0.987; relative viability (HCC-44; first compound 0.4 µM): 0.845; relative viability (HCC-44; first compound 1.265 µM): 1.04; relative viability (HCC-44; first compound 4 µM): 0.669; relative viability (NCI-H2405; first compound 0.04 µM): 1.25; relative viability (NCI-H2405; first compound 0.1265 µM): 1.14; relative viability (NCI-H2405; first compound 0.4 µM): 0.992; relative viability (NCI-H2405; first compound 1.265 µM): 0.894; relative viability (NCI-H2405; first compound 4 µM): 0.865; relative viability (NCI-H23; first compound 0.04 µM): 1.05; relative viability (NCI-H23; first compound 0.1265 µM): 1.23; relative viability (NCI-H23; first compound 0.4 µM): 0.874; relative viability (NCI-H23; first compound 1.265 µM): 1.05; relative viability (NCI-H23; first compound 4 µM): 0.393; relative viability (UMC-11; first compound 0.04 µM): 0.84; relative viability (UMC-11; first compound 0.1265 µM): 1.13; relative viability (UMC-11; first compound 0.4 µM): 0.837; relative viability (UMC-11; first compound 1.265 µM): 0.927; relative viability (UMC-11; first compound 4 µM): 0.632; relative viability (NCI-H322M; first compound 0.04 µM): 0.583; relative viability (NCI-H322M; first compound 0.1265 µM): 0.428; relative viability (NCI-H322M; first compound 0.4 µM): 0.492; relative viability (NCI-H322M; first compound 1.265 µM): 0.501; relative viability (NCI-H322M; first compound 4 µM): 0.485; relative viability (NCI-H1944; first compound 0.04 µM): 0.656; relative viability (NCI-H1944; first compound 0.1265 µM): 0.84; relative viability (NCI-H1944; first compound 0.4 µM): 0.78; relative viability (NCI-H1944; first compound 1.265 µM): 0.861; relative viability (NCI-H1944; first compound 4 µM): 0.648; relative viability (NCI-H1395; first compound 0.04 µM): 0.933; relative viability (NCI-H1395; first compound 0.1265 µM): 1; relative viability (NCI-H1395; first compound 0.4 µM): 1.12; relative viability (NCI-H1395; first compound 1.265 µM): 1.05; relative viability (NCI-H1395; first compound 4 µM): 0.83; relative viability (NCI-H1651; first compound 0.04 µM): 0.955; relative viability (NCI-H1651; first compound 0.1265 µM): 1; relative viability (NCI-H1651; first compound 0.4 µM): 0.796; relative viability (NCI-H1651; first compound 1.265 µM): 0.863; relative viability (NCI-H1651; first compound 4 µM): 0.882; relative viability (EMC-BAC-2; first compound 0.04 µM): 0.928; relative viability (EMC-BAC-2; first compound 0.1265 µM): 0.93; relative viability (EMC-BAC-2; first compound 0.4 µM): 0.802; relative viability (EMC-BAC-2; first compound 1.265 µM): 0.906; relative viability (EMC-BAC-2; first compound 4 µM): 0.684; relative viability (NCI-H650; first compound 0.04 µM): 0.962; relative viability (NCI-H650; first compound 0.1265 µM): 1.01; relative viability (NCI-H650; first compound 0.4 µM): 1.14; relative viability (NCI-H650; first compound 1.265 µM): 0.943; relative viability (NCI-H650; first compound 4 µM): 0.475; relative viability (SK-MES-1; first compound 0.04 µM): 0.442; relative viability (SK-MES-1; first compound 0.1265 µM): 0.453; relative viability (SK-MES-1; first compound 0.4 µM): 0.407; relative viability (SK-MES-1; first compound 1.265 µM): 0.477; relative viability (SK-MES-1; first compound 4 µM): 0.469; relative viability (NCI-H2085; first compound 0.04 µM): 0.718; relative viability (NCI-H2085; first compound 0.1265 µM): 0.86; relative viability (NCI-H2085; first compound 0.4 µM): 0.761; relative viability (NCI-H2085; first compound 1.265 µM): 0.65; relative viability (NCI-H2085; first compound 4 µM): 0.557; relative viability (H3255; first compound 0.04 µM): 0.25; relative viability (H3255; first compound 0.1265 µM): 0.249; relative viability (H3255; first compound 0.4 µM): 0.244; relative viability (H3255; first compound 4 µM): 0.212; relative viability (NCI-H2087; first compound 0.04 µM): 1.01; relative viability (NCI-H2087; first compound 0.1265 µM): 0.988; relative viability (NCI-H2087; first compound 0.4 µM): 0.989; relative viability (NCI-H2087; first compound 1.265 µM): 0.899; relative viability (NCI-H2087; first compound 4 µM): 0.735; relative viability (NCI-H1793; first compound 0.1265 µM): 0.655; relative viability (NCI-H1793; first compound 0.4 µM): 0.607; relative viability (NCI-H1793; first compound 1.265 µM): 0.762; relative viability (NCI-H1793; first compound 4 µM): 0.77; relative viability (HCC-827; first compound 0.04 µM): 0.202; relative viability (HCC-827; first compound 0.1265 µM): 0.211; relative viability (HCC-827; first compound 0.4 µM): 0.17; relative viability (HCC-827; first compound 1.265 µM): 0.197; relative viability (HCC-827; first compound 4 µM): 0.17; relative viability (NCI-H1563; first compound 0.04 µM): 0.872; relative viability (NCI-H1563; first compound 0.1265 µM): 0.941; relative viability (NCI-H1563; first compound 0.4 µM): 1.03; relative viability (NCI-H1563; first compound 1.265 µM): 0.882; relative viability (NCI-H1563; first compound 4 µM): 1.24; relative viability (NCI-H520; first compound 0.04 µM): 0.825; relative viability (NCI-H520; first compound 0.1265 µM): 0.896; relative viability (NCI-H520; first compound 0.4 µM): 0.401; relative viability (NCI-H520; first compound 1.265 µM): 0.813; relative viability (NCI-H520; first compound 4 µM): 0.795; relative viability (EPLC-272H; first compound 0.04 µM): 0.871; relative viability (EPLC-272H; first compound 0.1265 µM): 0.952; relative viability (EPLC-272H; first compound 0.4 µM): 0.994; relative viability (EPLC-272H; first compound 1.265 µM): 0.949; relative viability (EPLC-272H; first compound 4 µM): 0.0809; relative viability (NCI-H1993; first compound 0.04 µM): 0.713; relative viability (NCI-H1993; first compound 0.1265 µM): 0.853; relative viability (NCI-H1993; first compound 0.4 µM): 0.843; relative viability (NCI-H1993; first compound 1.265 µM): 0.79; relative viability (NCI-H1993; first compound 4 µM): 0.788

From the supplement of paper PMC10307832
